Data from patent publication US5731345A, “Seco-D steroids active on the cardiovascular system and pharmaceutical compositions containing same” (Sigma-Tau Industrie Farmaceutiche Riunite S.p.A, priority 1995, dated 1998).
Read-outs that look alike come from different tables or passages of the source.

Legend:
Na^+, K^+ -ATPase [1] = target: T1, Na^+, K^+ -ATPase (Canis lupus familiaris, UniProt P50997); test: displacement of specific ^3 H-oubain binding from purified Na^+, K^+ -ATPase receptor
T1 construct: from tissue
Source text: (§1) To test the affinity for the receptor site of the Na^+, K^+ -ATPase and the agonist or inhibitory activity on the enzyme, the following tests were used:
a) displacement of the specific ^3 H-oubain binding from the Na^+, K^+ -ATPase receptor purified according to Jorghensen (Jorghensen P., BBA, 1974, 356, 36) and Erdamnn (Erdmann E. et al., Arzneim. Forsh, 1984, 34, 1314);

Na^+, K^+ -ATPase [2] = format: biochemical; details: purified Na^+, hydrolysis of ^32 P-ATP
Source text: as §1
b) inhibition of the activity of the purified Na^+, K^+ -ATPase measured as % of hydrolysis of ^32 P-ATP in the presence and in the absence of the tested compound (Doucet A. et al., Am. J. Physiol., 1986, 251, F851).

[3] = tested on: spontaneous hypertensive rats (MHS); test: prevention of development of hypertension in pre-hypertensive rats, indirect tail-cuff plethysmography (SBP and HR); format: in vivo, rat; details: 5 week treatment, 20 mg/kg/os daily in 0.5% w/v Methocel; for SBP: controls 172+/-5.0; for HR: controls 380+/-6.3
Experimental: Systolic blood pressure (SBP) and heart rate (HR) were measured by an indirect tail-cuff plethysmographic method in […] pre-hypertensive male rats, (MHS or SHR), i.e. before hypertension onset so as to register the basal value of SBP. The rats were then subdivided in groups of 7 animals each and the groups were divided in control and treated group. The compound, suspended in 0.5% (w/v) Methocel, was orally administered daily for at least five weeks. The control group received only Methocel.
SBP and HR were measured weekly, 6 and 24 hours after the treatment.
After five weeks of treatment, when the hypertension was fully developed in the control group ([…]) a one-week wash-out was conducted in order to verify whether SBP would remain low or restored to the basal values of the control group.

Compound	IC50 (Na^+, K^+ -ATPase [1]; purified Na^+, K^+ -ATPase receptor, read-out: Binding ^3 H-oubain displacement -log IC50 (converted)) [nM]	Inhibitory activity -log IC50 (Na^+, K^+ -ATPase [2])	IC50 (Na^+, K^+ -ATPase [1]) [nM]	SBP [3]	HR [3]
CC[C@H](c1ccoc1)[C@@]1(C)CC[C@H]2[C@@H](CC[C@@H]3C[C@@H](O)CC[C@@]32C)C1=O [Comp. I-c, 17β-(3-furyl)-14-oxo-14,15-seco-5β-androstan-3β-ol]	6310	4.3			
C[C@]12CC[C@H](O)C[C@H]1CC[C@H]1C(=O)[C@@](C)([C@H](C/C=N/NC(=N)N)C3=CC(=O)OC3)CC[C@@H]12 [Comp. I-m, 3β-hydroxy-14-oxo-14,15-seco-5β-card-20(22)enolide-15-(E)-(guanidinoimino)]		4.1	3160		
CC[C@H](c1ccoc1)[C@@]1(C)CC[C@H]2[C@@H](CC[C@@H]3C[C@@H](O)CC[C@@]32C)[C@@H]1O [Comp. I-a, 17β-(3-furyl)-14,15-seco-5βandrostan-3β,14β-diol]				155+/-4.3 mm Hg	370+/-10.5 beats/min.
C[C@]12CC[C@H](O)C[C@H]1CC[C@H]1[C@H](O)[C@@](C)([C@H](CC#N)C3=CC(=O)OC3)CC[C@@H]12 [Comp. I-h, 3β,14β-dihydroxy-14,15-seco-5β-card-20(22)-enolide-15-nitrile]				160+/-7.8 mm Hg	377+/-10.5 beats/min.
CC[C@H](C1=CC(=O)OC1)[C@@]1(C)CC[C@H]2[C@@H](CC[C@@H]3C[C@@H](O)CC[C@@]32C)[C@@H]1O [Comp. I-e, 3β,14β-dihydroxy-14,15-seco-5β-card-20(22)-enolide]		5.1	126		
CC[C@H](C1=CC(=O)OC1)[C@@]1(C)CC[C@H]2[C@@H](CC[C@@H]3C[C@@H](O)CC[C@@]32C)C1=O [Comp. I-d, 3β-hydroxy-14-oxo-14,15-seco-5β-card-20(22)-enolide]		5.6	200	156+/-4.6 mm Hg	383+/-11.4 beats/min.
CN(C)CCO/N=C\C[C@H](C1=CC(=O)OC1)[C@@]1(C)CC[C@H]2[C@@H](CC[C@@H]3C[C@@H](O)CC[C@@]32C)C1=O [Comp. I-l, 3β-hydroxy-14-oxo-14,15-seco-5β-card-20(22)-enolide-15(2-dimethylaminoethoxy-(Z)-imino)]		4.2	3980		
CN(C)CCO/N=C/C[C@H](C1=CC(=O)OC1)[C@@]1(C)CC[C@H]2[C@@H](CC[C@@H]3C[C@@H](O)CC[C@@]32C)C1=O [Comp. I-i, 3β-hydroxy-14-oxo-14,15-seco-5β-card-20(22)-enolide-15-(2-dimethylaminoethoxy-(E)-imino)]		4.0	2510		
